Data from article PMC12786457, “Studies on the Complexation of Platinum(II) by Some 4-Nitroisothiazoles and the Cytotoxic Activity of the Resulting Complexes” (Molecules, 2025).
Read-outs that look alike come from different tables or passages of the source.

Experiments:
[1] = test system: BALB/3T3 (mouse embryonic fibroblast); test: SRB (sulforhodamine B) viability assay, normal cells BALB/3T3; assay type: cell-based; settings: normoxia, read-out: IC50 ± SD, Normal Cells BALB/3T3, Normoxia
Method: (§1) The cytotoxicity of the complexes C1–C5 was estimated by examining cell viability using the sulforhodamine B assay. […] However, due to the very poor solubility of the most polar complex C5 in acetone, its initial solution had to be prepared in polar N,N-dimethylacetamide (DMA) (see Section 3.7). Cisplatin was used as the reference drug. The results are presented as IC50 (50% inhibitory concentration), i.e., concentrations that reduce cell survival by 50%. The test was conducted on three cancer cell lines and one normal healthy cell line, namely, breast adenocarcinoma (MCF-7), ovarian adenocarcinoma (ES-2), lung adenocarcinoma (A549), and murine embryonic fibroblast (BALB/3T3).
(§2) Three solid tumor cell lines were used in this study: MCF-7 (breast adenocarcinoma), ES-2 (ovarian adenocarcinoma), and A549 (lung adenocarcinoma). The BALB/3T3 (mouse embryonic fibroblast) cell line was used as a comparative nonpathological tissue. All cell lines were purchased from the American Type Culture Collection (ATCC, Rockville, MD, USA). The preparation of cell cultures for cytotoxicity experiments is described in detail in the following article.
(§3) The initial solutions for subsequent dilutions in biological medium were prepared in a similar manner as described previously. […] The complex C5 was dissolved in the dimethylacetamide (DMA). All the initial solutions were prepared ex tempore and then were added to the culture medium 1:9 (v/v) to obtain a stock solution of 1 mg/mL.
(§4) The test was prepared and performed in the same manner as detailed in the following cited works.

[2] = test system: MCF-7 (breast adenocarcinoma); test: SRB (sulforhodamine B) viability assay, MCF-7; assay type: cell-based, human; settings: for IC50: SRB assay
Method: as §1, §2, §3, §4

[3] = test system: ES-2 (ovarian adenocarcinoma); test: SRB (sulforhodamine B) viability assay, ES-2; assay type: cell-based, human
Method: as §1, §2, §3, §4

[4] = TLC Rf as a measure of relative lipophilicity; assay type: physicochemical; settings: silica gel TLC Al foils
Method: Measurement of the melting points (m.p.) of the obtained compounds was performed with the Büchi M560 melting point device (BÜCHI Labortechnik AG, CH-9230 Flawil/SG, Flawil, Switzerland) and was uncorrected. The ESI-MS (electrospray ionization mass spectroscopy) spectra were recorded with the compactTM Bruker Daltonics Electrospray Ionization Quadrupole Time-of-Flight (ESI-Q-TOF) spectrometer (Bruker Daltonics GmbH, Bremen, Germany). The ESI-MS measurements for new compounds were performed in both positive- and negative-ion mode in LC-MS-grade using LC-MS grade methanol as a solvent. ESI-MS spectral analysis and the simulation of the theoretical monoisotopic mass of detected ions were performed using Bruker Compass Data Analysis 4.2 software (Bruker Daltonics GmbH, Bremen, Germany). All ^1H and ^13C-NMR spectra were recorded on the following instruments: Bruker NMR AVANCE III™ 600 MHz spectrometer with Ascend™ technology magnet with a quadruple resonance NMR ‘inverse’ cryoprobe (Bruker Corporation, Billerica, MA, USA) and/or Bruker ARX-300 (300 MHz) spectrometer (Bruker Analytische Messtechnik GmbH, Rheinstetten, Germany). The NMR measurements of samples of the compounds were carried out at room temperature (20–25 °C) using 5 mm tubes in deuterated acetone-d6. NMR chemical shifts were referenced to the solvent signal, i.e., for ^1H-NMR: δ (quintet of residual acetone-d6) = 2.05 ppm and for ^13C-NMR: δ (septet of acetone-d6) = 29.84 ppm. The Nicolet iS50 FT-IR spectrophotometer (Thermo Fisher Scientific Inc., Waltham, MA, USA) was used to record the Attenuated Total Reflectance IR (ATR-FT-IR) spectra (at MIR range 4000–450 cm^−1). Recording of spectra was performed on the diamond crystal surface (32 scans, resolution: 1 cm^−1, measurement temperature: 20–25 °C) with ATR intensity correction in the Laboratory of Elemental Analysis and Structural Research, Faculty of Pharmacy, Wroclaw Medical University. A Fourier transform, Bruker VERTEX 70V vacuum spectrometer equipped with an air-cooled DTGS detector was used to obtain the Far-IR (far-infrared) spectra (below 500 cm^−1) of the Pt(II) complexes. The spectra measurements were conducted with the ATR accessory, such as a diamond ATR crystal, in the resolution of 1 cm^−1 with 64 scans in the Laboratory of Vibrational Spectroscopy of the Faculty of Chemistry at Wrocław University of Science and Technology. No ATR intensity correction was applied to Far-IR spectra. Omnic 9.3.30 and Omnic Specta 2.0 software (Thermo Fisher Scientific Inc.) was used to process and analyze spectra. A double beam U-2800 Spectrophotometer (Hitachi—Science & Technology, Tokyo, Japan) was used to record UV spectra of Pt-complexes (C1 and C2) and reaction rate measurements of the GSH complexes. Dioxane solutions of complexes were used in the following concentrations: c = 2 × 10^−5 M and 3 × 10^−5 M, respectively, for C1 and C2. Measurement of UV spectra was conducted in quartz cuvettes (path length = 10.0 mm) in the range 190–400 nm (sampling interval 1 nm, scan speed 200 nm/min). All UV experiments were performed in the Laboratory of Elemental Analysis and Structural Research, Faculty of Pharmacy, Wroclaw Medical University. Baselines were corrected with pure dioxane as the reference solvent. Thin-layer chromatography (TLC) was used to monitor the progress of the reaction course and determine the purity of the synthesized compounds. Silica gel on TLC Al foils with fluorescent indicator 254 nm (Sigma-Aldrich, Merck Group, Darmstadt, Germany) was used as the stationary phase and chloroform–acetone mixtures (volume ratios 9:1, 7:3, and 1:1) as the eluent. Detection of Pt(II) compounds in the chromatograms was performed using a 0.5% acetone solution of rubeanic acid (dithiooxamide), and organic impurities were detected by observing the plates under UV light at 250 nm. […]

[5] = hypoxia, read-out: IC50 ± SD, MCF-7 (Breast), Hypoxia
[6] = normoxia, read-out: IC50 ± SD, MCF-7 (Breast), Normoxia
[7] = hypoxia, read-out: IC50 ± SD, ES-2 (Ovarian), Hypoxia
[8] = normoxia, read-out: IC50 ± SD, ES-2 (Ovarian), Normoxia

| Compound | IC50 [1] | IC50 [2, 5] | IC50 [2, 6] | selectivity index (SI), healthy cells vs MCF-7 ([2]; ratio of cytotoxicity towards healthy BALB/3T3 cells to cytotoxicity towards MCF-7, normoxia) | IC50 [3, 7] | IC50 [3, 8] | Rf, Eluent: Chlorofom:Acetone Ratio 1:1 Vol. [4] | Rf, Eluent: Chlorofom:Acetone Ratio 9:1 Vol. [4] |
| --- | --- | --- | --- | --- | --- | --- | --- | --- |
| Cc1nscc1[N+](=O)[O-].Cc1nscc1[N+](=O)[O-].[Cl][Pt][Cl] [C2, trans-Dichlorobis(3-methyl-4-nitroisothiazole)platinum(II)] | 1.14 ± 0.28 µM | 9.07 ± 5.07 µM | 6.16 ± 0.78 µM | ≈ 0.2 | 1.1 ± 0.34 µM | 2.14 ± 2.21 µM | 0.833 | 0.355 |
| COC(=O)c1snc(C)c1[N+](=O)[O-].Cc1nscc1[N+](=O)[O-].[Cl][Pt][Cl] [C3, trans-Dichloro-3-methyl-4-nitroisothiazole 3-Methyl-4-nitro-5-(methoxycarbonyl)isothiazole Platinum(II)] | 2.94 ± 3.06 µM | 7.13 ± 1.93 µM | 5.25 ± 1.01 µM |  | 4.02 ± 2.47 µM | 3.9 ± 2.68 µM | 0.845 | 0.645 |
| COC(=O)c1snc(C)c1[N+](=O)[O-].COC(=O)c1snc(C)c1[N+](=O)[O-].[Cl][Pt][Cl] [C4, trans-Dichlorobis(3-methyl-4-nitro-5-(methoxycarbonyl)isothiazole)platinum(II)] | 5.99 ± 1.28 µM | 7.68 ± 4.45 µM | 6.94 ± 2.25 µM |  | 5.44 ± 1.64 µM | 3.89 ± 1.62 µM | 0.863 | 0.828 |
| Dichlorobis(3-methyl-4-nitroisothiazole)platinum(II) [C1] | 7.31 ± 0.82 µM | 8.45 ± 2.25 µM | 4.59 ± 1.57 µM |  | 6.37 ± 1.69 µM | 7.29 ± 1.42 µM | 0.726 | 0.054 |
